Source: US5334595A, “Pyrazoloquinolones as anticancer agents” (priority 1992, dated 1994)
Where two headings read alike, the source gives them in different places.

How the values were obtained:
human topoisomerase II = target: T1, human topoisomerase II (Homo sapiens, UniProt P11388); experiment: Mammalian topoisomerase II inhibition assay (topo II covalently attached to DNA, relative to mAMSA); assay type: biochemical; settings: read-out: topo II inh. EC50
T1 construct: Topo II was purified from late log phase suspension cultures of HeLa WIS; endogenous in cells; host or cells: HeLa WIS
Excerpt: The inhibition of human topoisomerase II (hereafter topo II) was quantitated by a procedure adapted from that described by Trask et al., EMBO J., 3, 671-676 (1984). The assay quantitates the amount of topo II covalently attached to DNA at equilibrium during a topo II reaction. This assay determines the potential of a compound to stabilize this complex, which potential is closely related to the cytotoxicity of the compound.
Topo II was purified from late log phase suspension cultures of HeLa WIS by an adaptation of the method described by Per et al., Mol. Pharmacol., 32, 17-25 (1987).
Assays (in duplicate) were assembled at 4° C. Assay mix (25 μl) was distributed in Beckman (No. 265270) 1.5 mL microtiter tubes followed by the addition of 5 μl test compound to yield the final concentrations of assay components:
The assay mix including the test compound was incubated for 20 minutes at 37° C. The reaction was terminated at 37° C. by the addition of 3 μl 10% SDS followed by the addition of 266 μl 10 mM Tris-Cl pH 7.5, 20 μg/ml BSA, 20 μg/ml calf thymus DNA, 1% SDS.
A SDS/protein precipitate was formed by the addition of 28 μl 2.5M KCl followed by chilling on ice for a minimum of 10 minutes. The precipitate was collected and washed with a Brandell cell harvester on a GFB glass fiber filter membrane as follows. The contents of the assay tube were drawn up into the harvester. The tube was then rinsed 7× with 10 mM Tris-Cl pH 7.5, 1 mM EDTA and 100 mM KCl. The precipitate was washed with 1 L of a solution of 10 mM Tris-Cl pH 7.5, 1 mMEDTA, 100 mM KCl followed by 1 L of 95% ethyl alcohol and finally 0.5 L 70% of ethyl alcohol (per 48 samples in each case). After drying, CPM was determined by liquid scintillation counting with 5 ml Biofluor (NEN Research Products) or Readisafe (Beckman Instruments Inc.) cocktail.
Preparation of test compound--A stock solution (6 mg/ml) of test compound was prepared either in 0.1N sodium hydroxide or 0.2N hydrogen chloride. This solution then was diluted 1/5 into water and serially thereafter in either 0.02N sodium hydroxide or 0.04N hydrogen chloride, respectively. The stock solution and serial dilution of the test compound was stored at -20° C. prior to testing.
Screening of test compound--As an initial screen, the test compound was tested at a final concentration of 2, 20 and 200 μg/ml. The compound was then retested at a range of concentrations (usually 2-3×steps) bridging their approximate EC50 's, as estimated by the prescreen.
Controls--A solvent control which indicates the base level of topo II-DNA complex formed in the absence of the test compound was included in each test. A control, in which topo II was omitted, was included for each test compound at the highest drug concentration tested.
Reference Agent--A dose response curve with mAMSA at 0.01, 0.08, 0.16, 0.32, 1.0 and 10 μg/ml was included in each test.
The maximal DNA-topo II complex formed is taken as that equal to that formed at the nearly saturating dose of mAMSA (10 μg/ml).

[1] = test system: P388 murine leukemia cells; experiment: In vitro cytotoxicity, one-hour exposure, clonogenic survival of P388 cells; assay type: cell-based; settings: Mus musculus, read-out: in vitro cytotoxicity IC50, 1 hr exp.
Experimental: In vitro cytotoxicity was assayed by determining cell survival following exposure of P388 murine leukemia cells to a range of test compound concentrations. Cytotoxicity was quantitated following either a one-hour exposure or continuous exposure of P388 cells to test compound.
A Manual of Basic Technique. […] Briefly, following drug exposure cells were plated in soft agar and incubated (37°, 5% CO2) for 7-10 days during which time viable cells form visible colonies. Cytotoxicity following continuous exposure of cells to test compound was assayed by quantitating total P388 cells on a Coultier Counter following a 48-hour co-incubation of test compound with cells. P388 cells were maintained in log phase throughout the duration of cytotoxicity assays.
The percentage of cells surviving relative to an untreated control was graphed as a function of increasing drug concentration.

[2] = conc. achieving 50% of maximal effect of mAMSA, topo II from HeLa cells
[3] = footnote c: bell-shaped dose response curve noted, 50% of maximal effect of mAMSA

T1 sequence (P11388 whole entry): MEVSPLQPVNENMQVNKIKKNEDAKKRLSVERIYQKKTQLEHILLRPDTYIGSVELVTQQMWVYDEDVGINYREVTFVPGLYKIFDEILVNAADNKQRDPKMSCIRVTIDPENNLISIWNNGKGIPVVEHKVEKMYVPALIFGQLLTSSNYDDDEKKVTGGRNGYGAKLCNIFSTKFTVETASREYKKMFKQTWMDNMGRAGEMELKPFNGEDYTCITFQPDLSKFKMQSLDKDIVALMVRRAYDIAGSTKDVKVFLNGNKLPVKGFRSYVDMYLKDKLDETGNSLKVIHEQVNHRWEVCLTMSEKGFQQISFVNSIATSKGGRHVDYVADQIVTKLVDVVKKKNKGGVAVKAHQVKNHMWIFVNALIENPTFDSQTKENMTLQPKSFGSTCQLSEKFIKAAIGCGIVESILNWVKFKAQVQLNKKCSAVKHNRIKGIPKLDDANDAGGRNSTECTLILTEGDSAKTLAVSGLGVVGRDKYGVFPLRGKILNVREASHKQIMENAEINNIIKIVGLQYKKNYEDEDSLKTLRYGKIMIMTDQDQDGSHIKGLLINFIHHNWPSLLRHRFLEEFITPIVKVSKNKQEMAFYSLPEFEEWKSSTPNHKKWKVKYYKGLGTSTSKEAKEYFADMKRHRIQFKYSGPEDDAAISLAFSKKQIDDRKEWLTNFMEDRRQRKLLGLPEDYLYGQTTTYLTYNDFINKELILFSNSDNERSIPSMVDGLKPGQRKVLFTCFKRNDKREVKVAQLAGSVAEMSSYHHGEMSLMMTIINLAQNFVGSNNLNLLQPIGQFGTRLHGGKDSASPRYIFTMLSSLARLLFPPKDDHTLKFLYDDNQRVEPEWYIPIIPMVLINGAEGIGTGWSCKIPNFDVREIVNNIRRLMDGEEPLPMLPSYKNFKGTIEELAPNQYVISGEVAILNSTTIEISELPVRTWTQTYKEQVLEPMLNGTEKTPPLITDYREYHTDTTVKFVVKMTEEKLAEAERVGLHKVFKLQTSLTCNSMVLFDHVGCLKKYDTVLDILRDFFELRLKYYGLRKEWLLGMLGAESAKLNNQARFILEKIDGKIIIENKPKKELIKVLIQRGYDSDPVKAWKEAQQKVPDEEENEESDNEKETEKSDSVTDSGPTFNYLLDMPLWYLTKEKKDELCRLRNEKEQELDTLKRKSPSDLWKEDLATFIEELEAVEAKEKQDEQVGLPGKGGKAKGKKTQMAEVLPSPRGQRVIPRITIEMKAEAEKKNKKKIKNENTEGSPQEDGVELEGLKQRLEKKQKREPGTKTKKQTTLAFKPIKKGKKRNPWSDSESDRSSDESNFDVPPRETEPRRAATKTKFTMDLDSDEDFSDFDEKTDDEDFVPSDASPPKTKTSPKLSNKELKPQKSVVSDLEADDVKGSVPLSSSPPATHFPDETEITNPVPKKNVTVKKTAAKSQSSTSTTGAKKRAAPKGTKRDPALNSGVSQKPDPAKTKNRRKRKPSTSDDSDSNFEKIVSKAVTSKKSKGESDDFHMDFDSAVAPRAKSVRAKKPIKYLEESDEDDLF

Question: Which results are given for `Cc1cc(-c2c(F)cc3c4nn([C@H]5CC[C@H](N(C)C)CC5)c(=O)c-4cn(C4CC4)c3c2F)cc(C)n1` [Example 51b]?
Answer: EC50 (human topoisomerase II; [2]): 4400 nM; IC50 ([1]; P388, 1 hr exposure): 260 nM

Question: For `Cc1cc(-c2c(F)cc3c4nn([C@H]5CC[C@@H](N)CC5)c(=O)c-4cn(C4CC4)c3c2F)cc(C)n1` [Example 56a, 2-(Cis-4-Aminocyclohexyl)-5-cyclopropyl-6,8-difluoro-2,5-dihydro-7-(2,6-dimethyl-4-pyridinyl)-3H-pyrazolo-[4,3-c]quinolin-3-one], which EC50 (human topoisomerase II; [2]) is on record?
Answer: 500 nM

Question: What about the IC50 ([1]; P388, 1 hr exposure) of the same molecule?
Answer: 440 nM

Question: `Cc1cc(-c2c(F)cc3c4nn(CCNCCO)c(=O)c-4cn(C4CC4)c3c2F)cc(C)n1` [Example 17] was tested. Which EC50 (human topoisomerase II; [3]) did it give?
Answer: 3300 nM

Question: What about the IC50 ([1]; P388, 1 hr exposure) of the same molecule?
Answer: 1300 nM

Question: For `Cc1cc(-c2c(F)cc3c4nn([C@H]5CC[C@@H](N(C)C)CC5)c(=O)c-4cn(C4CC4)c3c2F)cc(C)n1` [Example 51a], which EC50 (human topoisomerase II; [2]) is on record?
Answer: 1700 nM

Question: And the IC50 ([1]; P388, 1 hr exposure)?
Answer: 67 nM

Question: Which results are given for `Cc1cc(-c2c(F)cc3c4nn(CCN(C)C)c(=O)c-4cn(C4CC4)c3c2F)cc(C)n1.O=C(O)/C=C/C(=O)O` [Example 1, 5-Cyclopropyl-6,8-difluoro-2,5-dihydro-2-[2-(dimethylamino)-ethyl]-7-(2,6-dimethyl-4-pyridinyl)-3H-pyrazolo[4,3-c]quinolin-3-one (E)-2-butendioate (1:1)]?
Answer: EC50 (human topoisomerase II; [3]): 2600 nM; IC50 ([1]; P388, 1 h): 260 nM

Question: For `Cc1cc(-c2c(F)cc3c4nn(CCCN(C)C)c(=O)c-4cn(C4CC4)c3c2F)cc(C)n1` [Example 14], which EC50 (human topoisomerase II; [2]) is on record?
Answer: 1700 nM

Question: And the IC50 ([1]; P388, 1 hr exposure)?
Answer: 160 nM
